Data taken from patent publication US10640497B2, “Microbiocidal oxadiazole derivatives” (SYNGENTA PARTICIPATIONS AG, priority 2015, dated 2020).

What was measured:
[1] = tested on: Phakopsora pachyrhizi; assay: Fungicidal activity against Phakopsora pachyrhizi, soybean, leaf disc preventative (Asian soybean rust); type: in vivo; conditions: foliar, 288 h, 12-14 days after application, compared to untreated control
Method: Leaf disks or leaf segments of various plant species are cut from plants grown in a greenhouse. The cut leaf disks or segments are placed in multiwell plates (24-well format) onto water agar. The leaf disks are sprayed with a test solution before (preventative) or after (curative) inoculation. Compounds to be tested are prepared as DMSO solutions (max. 10 mg/ml) which are diluted to the appropriate concentration with 0.025% Tween20 just before spraying. The inoculated leaf disks or segments are incubated under defined conditions (temperature, relative humidity, light, etc.) according to the respective test system. A single evaluation of disease level is carried out 3 to 14 days after inoculation, depending on the pathosystem. Percent disease control relative to the untreated check leaf disks or segments is then calculated. Soybean leaf disks are placed on water agar in multiwell plates (24-well format) and sprayed with the formulated test compound diluted in water. One day after application leaf discs are inoculated by spraying a spore suspension on the lower leaf surface. After an incubation period in a climate cabinet of 24-36 hours in darkness at 20° C. and 75% rh leaf disc are kept at 20° C. with 12 h light/day and 75% rh. The activity of a compound is assessed as percent disease control compared to untreated when an appropriate level of disease damage appears in untreated check leaf disks (12-14 days after application).

[2] = tested on: Puccinia recondita f. sp. tritici; assay: Fungicidal activity against Puccinia recondita f. sp. tritici, wheat, leaf disc curative (brown rust); type: in vivo; conditions: foliar, 144 h, wheat leaf segments, curative (applied 1 day after inoculation), 6-8 days after application, compared to untreated control
Method: (§1) Leaf disks or leaf segments of various plant species are cut from plants grown in a greenhouse. The cut leaf disks or segments are placed in multiwell plates (24-well format) onto water agar. The leaf disks are sprayed with a test solution before (preventative) or after (curative) inoculation. Compounds to be tested are prepared as DMSO solutions (max. 10 mg/ml) which are diluted to the appropriate concentration with 0.025% Tween20 just before spraying. The inoculated leaf disks or segments are incubated under defined conditions (temperature, relative humidity, light, etc.) according to the respective test system. A single evaluation of disease level is carried out 3 to 14 days after inoculation, depending on the pathosystem. Percent disease control relative to the untreated check leaf disks or segments is then calculated. Wheat leaf segments cv. Kanzler are placed on agar in multiwell plates (24-well format). The leaf segments are inoculated with a spore suspension of the fungus. Plates are stored in darkness at 19° C. and 75% rh. The formulated test compound diluted in water is applied 1 day after inoculation. The leaf segments are incubated at 19° C. and 75% rh under a light regime of 12 h light/12 h darkness in a climate cabinet and the activity of a compound is assessed as percent disease control compared to untreated when an appropriate level of disease damage appears in untreated check leaf segments (6-8 days after application).

[3] = tested on: Glomerella lagenarium (Colletotrichum lagenarium); assay: Fungicidal activity against Glomerella lagenarium (Colletotrichum lagenarium), liquid culture, cucumber, preventative (anthracnose); type: cell-based; conditions: Colletotrichum orbiculare, liquid culture (PDB), growth inhibition measured photometrically 3-4 days after application, compared to untreated control
Method: Mycelia fragments or conidia suspensions of a fungus, prepared either freshly from liquid cultures of the fungus or from cryogenic storage, are directly mixed into nutrient broth. DMSO solutions of the test compound (max. 10 mg/ml) is diluted with 0.025% Tween20 by a factor of 50 and 10 μl of this solution is pipetted into a microtiter plate (96-well format). The nutrient broth containing the fungal spores/mycelia fragments is then added to give an end concentration of the tested compound. The test plates are incubated in the dark at 24° C. and 96% relative humidity. The inhibition of fungal growth is determined photometrically after 2 to 7 days, depending on the pathosystem, and percent antifungal activity relative to the untreated check is calculated. Conidia of the fungus from cryogenic storage are directly mixed into nutrient broth (PDB potato dextrose broth). After placing a (DMSO) solution of test compound into a microtiter plate (96-well format), the nutrient broth containing the fungal spores is added. The test plates are incubated at 24° C. and the inhibition of growth is measured photometrically 3-4 days after application.

[4] = tested on: Puccinia recondita f. sp. tritici; assay: Fungicidal activity against Puccinia recondita f. sp. tritici, wheat, leaf disc preventative (brown rust); type: in vivo; conditions: foliar, wheat leaf segments, preventative (inoculated 1 day after application), 7-9 days after application, compared to untreated control
Method: as §1, with “plates (24-well format) and sprayed with the formulated test compound diluted in water. The leaf” for “plates (24-well format). The leaf”, “of the fungus 1 day” for “of the fungus. Plates are stored in darkness at 19° C. and 75% rh. The formulated test compound diluted in water is applied 1 day”, “day after application. The inoculated” for “day after inoculation. The leaf”, “application. The inoculated leaf segments” for “inoculation. The leaf segments”, “leaf segments (7-9 days after” for “leaf segments (6-8 days after”

CC1(C)CC(=O)N(Cc2ccc(-c3noc(C(F)(F)F)n3)cc2)O1 [Compound A-6, 5,5-dimethyl-2-[[4-[5-(trifluoromethyl)-1,2,4-oxadiazol-3-yl]phenyl]methyl]isoxazolidin-3-one]
≥ 80%: pest or weed control at 200 ppm [1] | pest or weed control at 200 ppm [2] | inhibition of growth at 20 ppm [3] | pest or weed control at 200 ppm [4]

CC1CC(=O)N(Cc2ccc(-c3noc(C(F)(F)F)n3)cc2)C1 (stereo not drawn) [Compound A-8, 4-methyl-1-[[4-[5-(trifluoromethyl)-1,2,4-oxadiazol-3-yl]phenyl]methyl]pyrrolidin-2-one]
≥ 80%: pest or weed control at 200 ppm [1] | pest or weed control at 200 ppm [2] | inhibition of growth at 20 ppm [3] | pest or weed control at 200 ppm [4]

CC1CCCN(Cc2ccc(-c3noc(C(F)(F)F)n3)cc2)C1=O (stereo not drawn) [Compound A-10, 3-methyl-1-[[4-[5-(trifluoromethyl)-1,2,4-oxadiazol-3-yl]phenyl]methyl]piperidin-2-one]
≥ 80%: pest or weed control at 200 ppm [1] | pest or weed control at 200 ppm [2] | inhibition of growth at 20 ppm [3] | pest or weed control at 200 ppm [4]

CC1(C)CC(=O)N(Cc2ccc(-c3noc(C(F)(F)F)n3)cc2)C(=O)C1 [Compound A-11, 4,4-dimethyl-1-[[4-[5-(trifluoromethyl)-1,2,4-oxadiazol-3-yl]phenyl]methyl]piperidine-2,6-dione]
≥ 80%: pest or weed control at 200 ppm [1] | pest or weed control at 200 ppm [2] | inhibition of growth at 20 ppm [3] | pest or weed control at 200 ppm [4]

O=C1CCCCN1Cc1ccc(-c2noc(C(F)(F)F)n2)cn1 [Compound A-12, 1-[[5-[5-(trifluoromethyl)-1,2,4-oxadiazol-3-yl]-2-pyridyl]methyl]piperidin-2-one]
≥ 80%: pest or weed control at 200 ppm [1] | pest or weed control at 200 ppm [2] | inhibition of growth at 20 ppm [3] | pest or weed control at 200 ppm [4]

CC1CCC(=O)N1Cc1ccc(-c2noc(C(F)(F)F)n2)cc1 (stereo not drawn) [Compound A-13, 5-methyl-1-[[4-[5-(trifluoromethyl)-1,2,4-oxadiazol-3-yl]phenyl]methyl]pyrrolidin-2-one]
≥ 80%: pest or weed control at 200 ppm [1] | pest or weed control at 200 ppm [2] | inhibition of growth at 20 ppm [3] | pest or weed control at 200 ppm [4]

CC1CCCC(=O)N1Cc1ccc(-c2noc(C(F)(F)F)n2)cc1 (stereo not drawn) [Compound A-14, 6-methyl-1-[[4-[5-(trifluoromethyl)-1,2,4-oxadiazol-3-yl]phenyl]methyl]piperidin-2-one]
≥ 80%: pest or weed control at 200 ppm [1] | pest or weed control at 200 ppm [2] | inhibition of growth at 20 ppm [3] | pest or weed control at 200 ppm [4]

O=C1C2CCC(CC2)N1Cc1ccc(-c2noc(C(F)(F)F)n2)cc1 [Compound A-15, 3-[[4-[5-(trifluoromethyl)-1,2,4-oxadiazol-3-yl]phenyl]methyl]-3-azabicyclo[2.2.2]octan-2-one]
≥ 80%: pest or weed control at 200 ppm [1] | pest or weed control at 200 ppm [2] | inhibition of growth at 20 ppm [3] | pest or weed control at 200 ppm [4]

CC1(C)CCCN(Cc2ccc(-c3noc(C(F)(F)F)n3)cc2)C1=O [Compound A-16, 3,3-dimethyl-1-[[4-[5-(trifluoromethyl)-1,2,4-oxadiazol-3-yl]phenyl]methyl]piperidin-2-one]
≥ 80%: pest or weed control at 200 ppm [1] | pest or weed control at 200 ppm [2] | inhibition of growth at 20 ppm [3] | pest or weed control at 200 ppm [4]

CC1CCN(Cc2ccc(-c3noc(C(F)(F)F)n3)cc2)C(=O)C1 (stereo not drawn) [Compound A-17, 4-methyl-1-[[4-[5-(trifluoromethyl)-1,2,4-oxadiazol-3-yl]phenyl]methyl]piperidin-2-one]
≥ 80%: pest or weed control at 200 ppm [1] | pest or weed control at 200 ppm [2] | inhibition of growth at 20 ppm [3] | pest or weed control at 200 ppm [4]

CC1CCC(=O)N(Cc2ccc(-c3noc(C(F)(F)F)n3)cc2)C1 (stereo not drawn) [Compound A-18, 5-methyl-1-[[4-[5-(trifluoromethyl)-1,2,4-oxadiazol-3-yl]phenyl]methyl]piperidin-2-one]
≥ 80%: pest or weed control at 200 ppm [1] | pest or weed control at 200 ppm [2] | inhibition of growth at 20 ppm [3] | pest or weed control at 200 ppm [4]

COC1CCCN(Cc2ccc(-c3noc(C(F)(F)F)n3)cc2)C1=O (stereo not drawn) [Compound A-19, 3-methoxy-1-[[4-[5-(trifluoromethyl)-1,2,4-oxadiazol-3-yl]phenyl]methyl]piperidin-2-one]
≥ 80%: pest or weed control at 200 ppm [1] | pest or weed control at 200 ppm [2] | inhibition of growth at 20 ppm [3] | pest or weed control at 200 ppm [4]

O=C1CC(C(F)(F)F)N1Cc1ccc(-c2noc(C(F)(F)F)n2)cc1 (stereo not drawn) [Compound A-20, 4-(trifluoromethyl)-1-[[4-[5-(trifluoromethyl)-1,2,4-oxadiazol-3-yl]phenyl]methyl]azetidin-2-one]
≥ 80%: pest or weed control at 200 ppm [1] | pest or weed control at 200 ppm [2] | inhibition of growth at 20 ppm [3] | pest or weed control at 200 ppm [4]

O=C1CCC(C(F)F)N1Cc1ccc(-c2noc(C(F)(F)F)n2)cc1 (stereo not drawn) [Compound A-21, 5-(difluoromethyl)-1-[[4-[5-(trifluoromethyl)-1,2,4-oxadiazol-3-yl]phenyl]methyl]pyrrolidin-2-one]
≥ 80%: pest or weed control at 200 ppm [1] | pest or weed control at 200 ppm [2] | inhibition of growth at 20 ppm [3] | pest or weed control at 200 ppm [4]

O=C1CCN1Cc1ccc(-c2noc(C(F)(F)F)n2)cc1 [Compound A-23, 1-[[4-[5-(trifluoromethyl)-1,2,4-oxadiazol-3-yl]phenyl]methyl]azetidin-2-one]
≥ 80%: pest or weed control at 200 ppm [1] | pest or weed control at 200 ppm [2] | inhibition of growth at 20 ppm [3] | pest or weed control at 200 ppm [4]
